The values that follow come from patent US9580429B2, “Pyrrolo[3,2-D]pyrimidin-4-one derivatives and their use in therapy” (ASTRAZENECA AB, priority 2004, dated 2017).

pIC50: −log10 of the molar value.

The target in the assay is T1, human MPO (Homo sapiens, UniProt P05164).
T1 sequence (P05164 49-745): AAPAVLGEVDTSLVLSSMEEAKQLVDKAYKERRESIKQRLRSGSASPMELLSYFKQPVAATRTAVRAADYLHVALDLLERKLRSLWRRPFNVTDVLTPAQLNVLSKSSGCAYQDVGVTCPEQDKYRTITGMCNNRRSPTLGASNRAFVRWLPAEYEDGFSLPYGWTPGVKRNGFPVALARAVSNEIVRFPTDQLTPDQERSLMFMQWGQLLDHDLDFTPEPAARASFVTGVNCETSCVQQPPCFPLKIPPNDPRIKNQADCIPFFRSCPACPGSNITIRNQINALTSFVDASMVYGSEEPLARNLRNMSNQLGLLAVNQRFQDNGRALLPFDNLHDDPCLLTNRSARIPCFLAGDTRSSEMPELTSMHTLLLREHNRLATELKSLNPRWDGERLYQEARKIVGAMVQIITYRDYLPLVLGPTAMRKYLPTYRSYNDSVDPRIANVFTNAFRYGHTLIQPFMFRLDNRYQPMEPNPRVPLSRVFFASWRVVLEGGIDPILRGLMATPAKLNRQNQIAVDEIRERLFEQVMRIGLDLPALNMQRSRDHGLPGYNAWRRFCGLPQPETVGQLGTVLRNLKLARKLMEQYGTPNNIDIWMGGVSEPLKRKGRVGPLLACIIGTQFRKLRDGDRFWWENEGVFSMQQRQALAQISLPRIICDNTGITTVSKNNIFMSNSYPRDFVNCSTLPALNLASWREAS
In words: MPO inhibition screen (TMB oxidation, absorbance). It is filed as biochemical. The following applies: in the presence of tyrosine (final 8 μM); human MPO 2.5 nM; H2O2 100 μM. How it is done: Methods for the determination of MPO inhibitory activity are disclosed in patent application WO 02/090575. The pharmacological activity of compounds according to the invention was tested in the following screen in which the compounds were either tested alone or in the presence of added tyrosine:
Assay buffer: 20 mM sodium/potassium phosphate buffer pH 6.5 containing 10 mM taurine and 100 mM NaCl.
Developing reagent: 2 mM 3,3′,5,5′-tetramethylbenzidine (TMB), 200 μM KI, 200 mM acetate buffer pH 5.4 with 20% DMF.
To 10 μl of diluted compounds in assay buffer, 40 μl of human MPO (final concentration 2.5 nM), with or without 20 μM tyrosine (final concentration, if present, 8 μM), was added and the mixture was incubated for 10 minutes at ambient temperature. Then 50 μl of H2O2 (final concentration 100 μM), or assay buffer alone as a control, were added. After incubation for 10 minutes at ambient temperature, the reaction was stopped by adding 10 μl 0.2 mg/ml of catalase (final concentration 18 μg/ml). The reaction mixture was left for an additional 5 minutes before 100 μl of TMB developing reagent was added. The amount of oxidised 3,3′,5,5′-tetramethylbenzidine formed was then measured after about 5 minutes using absorbance spectroscopy at about […]. IC50 values were then determined using standard procedures.
With `CC(C)Cn1c(=S)[nH]c(=O)c2[nH]ccc21` [Example 2, 1-Isobutyl-2-thioxo-1,2,3,5-tetrahydro-pyrrolo[3,2-d]pyrimidin-4-one], the pIC50 was 6.59.

On to `CCCOc1cccc(Cn2c(=S)[nH]c(=O)c3[nH]ccc32)c1OCCOC` [Example 5, 1-[2-(2-Methoxyethoxy)-3-propoxybenzyl]-2-thioxo-1,2,3,5-tetrahydro-pyrrolo[3,2-d]pyrimidin-4-one], for which the pIC50 was 6.66. For the compound `CCOC(C)(C)Cn1c(=S)[nH]c(=O)c2[nH]ccc21` [Example 11, 1-(2-Ethoxy-2-methylpropyl)-2-thioxo-1,2,3,5-tetrahydro-pyrrolo[3,2-d]pyrimidin-4-one], the pIC50 was 5.96.
